# Reference: the kinase profiling compilation of Christmann-Franck et al. (2016)
# What was measured:
# Assay in all cases: KINOMEscan competition binding
# Details in all cases: compound 10.0 µM
# BMPR2 (human) = BMPR2 (human) (UniProt Q13873)
# CAMK2D (human) = CAMK2D (human) (UniProt Q13557)
# CDK4 CCND1 (human) = CDK4 CCND1 (human) (UniProt P11802+P24385)
# CDKL1 (human) = CDKL1 (human) (UniProt Q00532)
# CDKL3 (human) = CDKL3 (human) (UniProt Q8IVW4)
# CHEK2 (human) = CHEK2 (human) (UniProt O96017)
# CRK2 (P.falciparum) = CRK2 (P.falciparum) (UniProt P61075)
# CSNK2A2 (human) = CSNK2A2 (human) (UniProt P19784)
# DAPK3 (human) = DAPK3 (human) (UniProt O43293)
# DCLK3 (human) = DCLK3 (human) (UniProt Q9C098)
# ERBB2 (human) = ERBB2 (human) (UniProt P04626)
# ERN1 (human) = ERN1 (human) (UniProt O75460)
# GSK3B (human) = GSK3B (human) (UniProt P49841)
# HUNK (human) = HUNK (human) (UniProt P57058)
# INSR (human) = INSR (human) (UniProt P06213)
# INSRR (human) = INSRR (human) (UniProt P14616)
# [1] = test system: KIT (human), P10721 [V559D]
# LIMK2 (human) = LIMK2 (human) (UniProt P53671)
# MAP2K3 (human) = MAP2K3 (human) (UniProt P46734)
# MAP3K2 (human) = MAP3K2 (human) (UniProt Q9Y2U5)
# MAP4K2 (human) = MAP4K2 (human) (UniProt Q12851)
# MAPK15 (human) = MAPK15 (human) (UniProt Q8TD08)
# MAPK6 (human) = MAPK6 (human) (UniProt Q16659)
# MERTK (human) = MERTK (human) (UniProt Q12866)
# MYO3B (human) = MYO3B (human) (UniProt Q8WXR4)
# NEK9 (human) = NEK9 (human) (UniProt Q8TD19)
# PHKG1 (human) = PHKG1 (human) (UniProt Q16816)
# PIK3C2G (human) = PIK3C2G (human) (UniProt O75747)
# [2] = test system: PIK3CA (human), P42336 [E545K]
# PRKAA1 (human) = PRKAA1 (human) (UniProt Q13131)
# PRKD2 (human) = PRKD2 (human) (UniProt Q9BZL6)
# PTK2 (human) = PTK2 (human) (UniProt Q05397)
# [3] = test system: RET (human), P07949 [M918T]
# RIPK1 (human) = RIPK1 (human) (UniProt Q13546)
# SGK110 (human) = SGK110 (human) (UniProt P0C264)
# SGK3 (human) = SGK3 (human) (UniProt Q96BR1)
# TAOK3 (human) = TAOK3 (human) (UniProt Q9H2K8)
# TEK (human) = TEK (human) (UniProt Q02763)
# TTK (human) = TTK (human) (UniProt P33981)
# YSK4 (human) = YSK4 (human) (UniProt Q56UN5)
# Chain of CDKL1 (human) (Q00532 whole entry, looked up): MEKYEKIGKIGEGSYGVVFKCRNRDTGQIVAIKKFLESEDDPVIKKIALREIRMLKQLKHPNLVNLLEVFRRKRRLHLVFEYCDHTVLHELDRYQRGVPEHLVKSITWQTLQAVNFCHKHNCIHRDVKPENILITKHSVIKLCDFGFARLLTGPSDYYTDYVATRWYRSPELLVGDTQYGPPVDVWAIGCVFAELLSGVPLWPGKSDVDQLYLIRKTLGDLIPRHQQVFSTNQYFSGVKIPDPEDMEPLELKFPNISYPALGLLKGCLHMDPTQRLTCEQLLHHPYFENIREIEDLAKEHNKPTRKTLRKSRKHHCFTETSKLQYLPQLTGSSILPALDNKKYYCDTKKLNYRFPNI
# Chain of CDK4 CCND1 (human) (P11802 whole entry, looked up): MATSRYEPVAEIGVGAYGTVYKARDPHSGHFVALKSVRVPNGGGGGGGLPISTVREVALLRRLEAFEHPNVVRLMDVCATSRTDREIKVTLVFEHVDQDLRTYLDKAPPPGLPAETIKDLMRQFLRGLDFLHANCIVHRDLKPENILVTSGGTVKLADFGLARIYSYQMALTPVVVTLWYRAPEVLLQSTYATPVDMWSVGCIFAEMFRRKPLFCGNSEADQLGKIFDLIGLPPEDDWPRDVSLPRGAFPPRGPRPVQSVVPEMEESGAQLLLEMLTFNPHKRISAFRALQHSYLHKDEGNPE
# Chain of CDK4 CCND1 (human) (P24385 whole entry, looked up): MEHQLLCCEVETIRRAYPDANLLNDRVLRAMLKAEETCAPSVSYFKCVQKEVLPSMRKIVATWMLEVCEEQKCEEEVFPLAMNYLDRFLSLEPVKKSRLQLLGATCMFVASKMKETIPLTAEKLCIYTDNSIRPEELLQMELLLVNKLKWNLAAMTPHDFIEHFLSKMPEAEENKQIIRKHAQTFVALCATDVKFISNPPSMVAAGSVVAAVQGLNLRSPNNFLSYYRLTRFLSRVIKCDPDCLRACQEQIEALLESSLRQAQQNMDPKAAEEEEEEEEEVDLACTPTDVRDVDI
# Chain of SGK110 (human) (P0C264 whole entry, looked up): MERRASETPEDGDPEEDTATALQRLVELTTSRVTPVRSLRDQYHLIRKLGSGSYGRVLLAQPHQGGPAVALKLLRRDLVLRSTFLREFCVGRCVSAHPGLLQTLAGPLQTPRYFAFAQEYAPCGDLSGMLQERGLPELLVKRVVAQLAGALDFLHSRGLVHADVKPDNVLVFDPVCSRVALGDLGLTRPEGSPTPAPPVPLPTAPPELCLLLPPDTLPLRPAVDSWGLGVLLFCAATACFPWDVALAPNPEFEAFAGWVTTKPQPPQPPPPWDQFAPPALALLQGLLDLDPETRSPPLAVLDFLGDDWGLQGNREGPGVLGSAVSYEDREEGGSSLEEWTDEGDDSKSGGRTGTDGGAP
# Chain of SGK3 (human) (Q96BR1 whole entry, looked up): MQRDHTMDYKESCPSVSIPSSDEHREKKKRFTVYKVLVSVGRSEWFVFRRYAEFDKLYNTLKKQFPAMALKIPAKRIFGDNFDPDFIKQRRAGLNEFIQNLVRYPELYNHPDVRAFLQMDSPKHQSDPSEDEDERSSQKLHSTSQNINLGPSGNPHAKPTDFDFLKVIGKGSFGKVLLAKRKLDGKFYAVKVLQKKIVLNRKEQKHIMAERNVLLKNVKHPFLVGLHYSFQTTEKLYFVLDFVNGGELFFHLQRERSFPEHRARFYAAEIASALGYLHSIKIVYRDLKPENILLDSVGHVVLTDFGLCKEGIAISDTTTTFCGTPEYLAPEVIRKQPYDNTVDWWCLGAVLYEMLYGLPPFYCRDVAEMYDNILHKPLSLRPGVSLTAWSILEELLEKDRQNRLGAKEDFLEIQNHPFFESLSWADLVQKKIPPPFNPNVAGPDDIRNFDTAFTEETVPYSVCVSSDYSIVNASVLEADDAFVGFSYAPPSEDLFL
# Chain of KIT (human), P10721 [V559D] (P10721 whole entry V559D, looked up): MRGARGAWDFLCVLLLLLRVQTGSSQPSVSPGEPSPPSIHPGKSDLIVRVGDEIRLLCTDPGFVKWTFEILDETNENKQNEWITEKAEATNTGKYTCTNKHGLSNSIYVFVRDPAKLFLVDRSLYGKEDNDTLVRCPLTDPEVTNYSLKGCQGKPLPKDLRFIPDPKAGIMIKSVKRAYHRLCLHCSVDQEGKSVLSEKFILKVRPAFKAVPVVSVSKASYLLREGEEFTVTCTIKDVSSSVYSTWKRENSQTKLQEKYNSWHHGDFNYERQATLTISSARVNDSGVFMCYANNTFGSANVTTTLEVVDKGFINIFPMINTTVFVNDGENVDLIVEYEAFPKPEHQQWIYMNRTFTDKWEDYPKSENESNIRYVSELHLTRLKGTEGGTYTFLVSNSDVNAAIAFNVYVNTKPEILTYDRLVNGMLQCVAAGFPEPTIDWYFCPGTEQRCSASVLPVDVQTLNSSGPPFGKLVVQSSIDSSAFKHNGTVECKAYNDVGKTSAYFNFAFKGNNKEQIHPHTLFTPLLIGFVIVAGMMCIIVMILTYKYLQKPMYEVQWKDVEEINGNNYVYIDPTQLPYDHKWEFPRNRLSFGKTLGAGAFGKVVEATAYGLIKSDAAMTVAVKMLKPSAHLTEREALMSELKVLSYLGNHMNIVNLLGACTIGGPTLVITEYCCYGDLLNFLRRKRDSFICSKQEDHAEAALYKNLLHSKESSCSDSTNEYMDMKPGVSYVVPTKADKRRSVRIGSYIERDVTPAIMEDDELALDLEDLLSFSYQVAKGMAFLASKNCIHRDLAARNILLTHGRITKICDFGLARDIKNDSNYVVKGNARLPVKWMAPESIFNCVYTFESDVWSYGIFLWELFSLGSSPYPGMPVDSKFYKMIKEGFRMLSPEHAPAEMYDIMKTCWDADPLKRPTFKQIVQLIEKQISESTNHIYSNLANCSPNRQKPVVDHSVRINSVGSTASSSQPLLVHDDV
# Chain of RIPK1 (human) (Q13546 whole entry, looked up): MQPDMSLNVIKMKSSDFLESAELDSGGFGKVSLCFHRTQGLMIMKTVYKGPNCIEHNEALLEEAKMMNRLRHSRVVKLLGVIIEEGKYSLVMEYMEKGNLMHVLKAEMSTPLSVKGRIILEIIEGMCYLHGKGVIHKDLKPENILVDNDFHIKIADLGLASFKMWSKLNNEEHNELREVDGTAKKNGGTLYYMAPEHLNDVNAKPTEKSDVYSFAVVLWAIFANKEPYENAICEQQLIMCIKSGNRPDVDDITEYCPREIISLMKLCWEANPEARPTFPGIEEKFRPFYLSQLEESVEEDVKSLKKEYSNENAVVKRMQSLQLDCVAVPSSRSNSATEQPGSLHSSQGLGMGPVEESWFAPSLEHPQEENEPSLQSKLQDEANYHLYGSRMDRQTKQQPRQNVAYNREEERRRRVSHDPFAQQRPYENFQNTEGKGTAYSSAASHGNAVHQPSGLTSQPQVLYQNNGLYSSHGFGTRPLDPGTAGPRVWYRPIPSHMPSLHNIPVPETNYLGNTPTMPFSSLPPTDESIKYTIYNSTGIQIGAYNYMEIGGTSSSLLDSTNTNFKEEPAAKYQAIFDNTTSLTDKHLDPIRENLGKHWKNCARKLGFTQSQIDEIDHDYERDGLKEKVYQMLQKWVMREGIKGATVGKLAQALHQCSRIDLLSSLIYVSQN
# Chain of PTK2 (human) (Q05397 whole entry, looked up): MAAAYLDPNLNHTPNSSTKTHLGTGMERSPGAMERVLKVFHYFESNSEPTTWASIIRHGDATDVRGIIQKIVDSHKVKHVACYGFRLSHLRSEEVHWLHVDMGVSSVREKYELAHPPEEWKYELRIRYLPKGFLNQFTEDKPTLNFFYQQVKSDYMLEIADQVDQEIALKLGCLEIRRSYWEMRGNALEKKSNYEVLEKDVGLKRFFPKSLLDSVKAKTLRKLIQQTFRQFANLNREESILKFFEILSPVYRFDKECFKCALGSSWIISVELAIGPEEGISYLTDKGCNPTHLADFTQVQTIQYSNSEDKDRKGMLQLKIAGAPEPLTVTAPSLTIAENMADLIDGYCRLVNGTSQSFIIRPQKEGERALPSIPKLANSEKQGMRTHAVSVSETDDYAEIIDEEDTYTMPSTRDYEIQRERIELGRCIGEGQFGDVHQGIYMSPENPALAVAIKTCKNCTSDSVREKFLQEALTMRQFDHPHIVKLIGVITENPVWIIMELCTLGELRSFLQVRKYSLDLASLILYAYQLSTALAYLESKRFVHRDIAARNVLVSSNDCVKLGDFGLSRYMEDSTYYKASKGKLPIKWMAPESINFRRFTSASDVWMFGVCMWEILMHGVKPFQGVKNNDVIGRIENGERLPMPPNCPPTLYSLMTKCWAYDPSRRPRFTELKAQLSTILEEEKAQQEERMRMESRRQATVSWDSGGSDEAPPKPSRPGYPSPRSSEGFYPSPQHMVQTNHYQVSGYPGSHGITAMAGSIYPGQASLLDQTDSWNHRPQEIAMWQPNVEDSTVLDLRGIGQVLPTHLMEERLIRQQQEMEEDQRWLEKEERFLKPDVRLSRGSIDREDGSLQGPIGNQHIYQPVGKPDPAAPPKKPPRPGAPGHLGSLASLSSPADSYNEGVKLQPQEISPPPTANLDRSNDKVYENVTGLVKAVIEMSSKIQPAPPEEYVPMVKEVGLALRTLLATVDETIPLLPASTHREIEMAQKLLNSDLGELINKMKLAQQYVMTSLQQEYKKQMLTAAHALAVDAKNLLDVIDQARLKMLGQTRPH
# Chain of MAP2K3 (human) (P46734 whole entry, looked up): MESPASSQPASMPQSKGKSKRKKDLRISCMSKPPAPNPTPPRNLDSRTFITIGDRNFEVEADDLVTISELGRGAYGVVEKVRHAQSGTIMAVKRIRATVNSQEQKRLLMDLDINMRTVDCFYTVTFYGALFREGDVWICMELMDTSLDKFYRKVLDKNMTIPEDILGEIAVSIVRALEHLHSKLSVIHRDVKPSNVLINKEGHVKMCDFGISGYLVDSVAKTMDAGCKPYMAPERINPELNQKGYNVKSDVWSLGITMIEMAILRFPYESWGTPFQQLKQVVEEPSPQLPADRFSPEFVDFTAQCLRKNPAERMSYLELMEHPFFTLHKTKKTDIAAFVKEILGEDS
structure (smiles),measurement,setting,value
CCC(=O)N1CCN(c2ccc(-n3c(=O)ccc4cnc5ccc(-c6cnc7ccccc7c6)cc5c43)cc2C(F)(F)F)CC1,"kinase still bound, per cent of control",BMPR2 (human),85%
same,"kinase still bound, per cent of control",CAMK2D (human),72%
same,per cent of control,CDK4 CCND1 (human),100%
same,per cent of control,CDKL1 (human),100%
same,per cent of control,CDKL3 (human),92%
same,"kinase still bound, per cent of control",CHEK2 (human),100%
same,"kinase still bound, per cent of control",CRK2 (P.falciparum),97%
same,"kinase still bound, per cent of control",CSNK2A2 (human),11%
same,"kinase still bound, per cent of control",DAPK3 (human),82%
same,"kinase still bound, per cent of control",DCLK3 (human),97%
same,"kinase still bound, per cent of control",ERBB2 (human),91%
same,"kinase still bound, per cent of control",ERN1 (human),100%
same,"kinase still bound, per cent of control",GSK3B (human),100%
same,"kinase still bound, per cent of control",HUNK (human),91%
same,"kinase still bound, per cent of control",INSR (human),7.6%
same,"kinase still bound, per cent of control",INSRR (human),100%
same,"kinase still bound, per cent of control",[1],50%
same,"kinase still bound, per cent of control",LIMK2 (human),4.8%
same,"kinase still bound, per cent of control",MAP2K3 (human),80%
same,"kinase still bound, per cent of control",MAP3K2 (human),62%
same,"kinase still bound, per cent of control",MAP4K2 (human),35%
same,"kinase still bound, per cent of control",MAPK15 (human),79%
same,"kinase still bound, per cent of control",MAPK6 (human),1.8%
same,"kinase still bound, per cent of control",MERTK (human),53%
same,"kinase still bound, per cent of control",MYO3B (human),100%
same,"kinase still bound, per cent of control",NEK9 (human),100%
same,"kinase still bound, per cent of control",PHKG1 (human),100%
same,"kinase still bound, per cent of control",PIK3C2G (human),11%
same,"kinase still bound, per cent of control",[2],0.6%
same,"kinase still bound, per cent of control",PRKAA1 (human),91%
same,"kinase still bound, per cent of control",PRKD2 (human),100%
same,"kinase still bound, per cent of control",PTK2 (human),14%
same,"kinase still bound, per cent of control",[3],51%
same,"kinase still bound, per cent of control",RIPK1 (human),1.9%
same,"kinase still bound, per cent of control",SGK110 (human),94%
same,"kinase still bound, per cent of control",SGK3 (human),100%
same,"kinase still bound, per cent of control",TAOK3 (human),76%
same,"kinase still bound, per cent of control",TEK (human),19%
same,"kinase still bound, per cent of control",TTK (human),9.6%
same,"kinase still bound, per cent of control",YSK4 (human),38%
